This note sets out measurements from patent publication US20130202653A1, “3-ARYL-3-HYDROXY-2-AMINO-PROPIONIC ACID AMIDES, 3-HETEROARYL-3-HYDROXY-2-AMINOPROPIONIC ACID AMIDES AND RELATED COMPOUNDS HAVING ANALGESIC AND/OR IMMUNO STIMULANT ACTIVITY” (Allergan, Inc., priority 2005, published 2013).

Data set [1] concerns tactile allodynia in the rat Chung model. The data set can be described thus: Chung model: reversal of tactile allodynia (von Frey hairs) after spinal nerve ligation. The class given is in vivo. Conditions: peak at 60 min post dose. The text has this:
An art-accepted model or assay for measuring an analgesic effect of a compound in chronic pain (in particular peripheral neuropathy) is the model known as Kim and Chung 1992, Pain […], pp 355-363 (Chung model). This model involves the surgical ligation of the L5 (and optionally the L6) spinal nerves on one side in experimental animals. Rats recovering from the surgery gain weight and display a level of general activity similar to that of normal rats. However, these rats develop abnormalities of the foot, wherein the hindpaw is moderately everted and the toes are held together. More importantly, the hindpaw on the side affected by the surgery appears to become sensitive to low-threshold mechanical stimuli and will perceive pain instead of the faint sensation of touch. This sensitivity to normally non-painful touch, called “tactile allodynia”, develops within the first week after surgery and lasts for at least two months. The allodynia response includes lifting the affected hindpaw to escape from the stimulus, licking the paw and holding it in the air for many seconds. None of these responses is normally seen in the control group.
To produce the tactile allodynia, rats are anesthetized before surgery. The surgical site is shaved and prepared either with betadine or Novacaine. Incision is made from the thoracic vertebra X111 down toward the sacrum. Muscle tissue is separated from the spinal vertebra (left side) at the L4-S2 levels. The L6 vertebra is located and the transverse process is carefully removed with a small rongeur to expose the L4-L6 spinal nerves. The L5 and L6 spinal nerves are isolated and tightly ligated with 6-0 silk thread. The same procedure is done on the right side as a control, except no ligation of the spinal nerves is performed.
After a complete hemostasis is confirmed, the wounds are sutured. A small amount of antibiotic ointment is applied to the incised area, and the rat is transferred to the recovery plastic cage under a regulated heat-temperature lamp.
On the day of the experiment, at least seven days after the surgery, typically six rats per test group are administered the test drugs by intraperitoneal (i.p.) injection or oral gavage (p.o.). For i.p. administration, the compounds are formulated in H2O and given in a volume of 1 ml/kg body weight by injecting into the intraperitoneal cavity. For p.o. administration, the compounds are formulated in H2O and given in a volume of 1 ml/kg body weight using an 18-gauge, 3 inch gavage needle that is slowly inserted through the esophagus into the stomach.
Tactile allodynia is assessed via von Frey hairs, which are a series of fine hairs with incremental differences in stiffness. Rats are placed in a plastic cage with a wire mesh bottom and allowed to acclimate for approximately 30 minutes. To establish the pre-drug baseline, the von Frey hairs are applied perpendicularly through the mesh to the mid-plantar region of the rats' hindpaw with sufficient force to cause slight buckling and held for 6-8 seconds. The applied force has been calculated to range from 0.41 to 15.1 grams. If the paw is sharply withdrawn, it is considered a positive response. A normal animal will not respond to stimuli in this range, but a surgically ligated paw will be withdrawn in response to a 1-2 gram hair. The 50% paw withdrawal threshold is determined using the method of Dixon, W. J., Ann. Rev. Pharmacol. Toxicol. 20:441-462 (1980) hereby incorporated by reference. Tactile allodynia is measured prior to and 15, 30, and 60 minutes after drug administration. The post-drug threshold is compared to the pre-drug threshold and the percent reversal of tactile sensitivity is calculated based on a normal threshold of 15.1 grams.
Table 1 below indicates the degree of pain reversal obtained in the Chung model with exemplary compounds of the invention. […]

In a further data set the test system is spleen size. The data set can be described thus: Immunostimulation: splenic size after systemic administration. Format: in vivo. Conditions: animals dosed at 200 mg/kg; rats. The text has this:
An art accepted method for measuring immuno stimulation comprises systemic administration of compounds to assay for the ability to stimulate the immune system, possibly due to nonspecific upregulation of the hemolymphoreticular system. This upregulation could result in increased numbers of lymphocytes of both T- and B-cell lineage.

The mark [2] stands for this setting: Rattus norvegicus, ip, 1 h, 300 μg/kg IP, read-out: Peak % Pain reversal: time post dose.

Where a name gives a salt, the structure may show the parent alone.

On to `N[C@@H](C(=O)N1CCCC1)[C@@H](O)c1cccnc1` (racemic) (as salt: hydrochloride) [Compound 20, DL-threo-2-Amino-3-hydroxy-3-(pyridin-3-yl)-1-(pyrrolidin-1-yl)propan-1-one dihydrochloride], for which the melting point came to 159.6 °C.

Take `O=C([C@@H](NCc1cccc(I)c1)[C@H](O)c1ccncc1)N1CCCC1` [Compound 228, (+)-(2S,3R)-2-(3-iodobenzylamino)-3-hydroxy-3-(pyridin-4-yl)-1-(pyrrolidin-1-yl)-propan-1-one dihydrochloride]: in data set [1] (setting [2]), the inhibition in vivo at 0.3 mg/kg came out at 36%.

For `N[C@@H](C(=O)N1CCCC1)[C@@H](O)c1ccncc1` (racemic) [Compound 22, DL-threo-2-Amino-3-hydroxy-3-(pyridin-4-yl)-1-(pyrrolidin-1-yl)propan-1-one dihydrochloride], the inhibition in vivo at 0.1 mg/kg in data set [1] (Rattus norvegicus, ip, 1 h, 100 μg/kg IP, read-out: Peak % Pain reversal: time post dose) is 100%. In addition, in data set [1] (Rattus norvegicus, po, 1 h, 3000 μg/kg PO, read-out: Peak % Pain reversal: time post dose), the inhibition in vivo at 3 mg/kg is 100%. Also, the “increase in spleen size” value in the data set with spleen size is given as “twentyfive”.

Consider `N[C@@H](C(=O)N1CCCC1)[C@@H](O)c1ccnc(Cl)c1` (racemic) [Compound 41, DL-threo-2-Amino-3-(2-chloropyridin-4-yl)-3-hydroxy-1-(pyrrolidin-1-yl)propan-1-one dihydrochloride], for which the inhibition in vivo at 0.3 mg/kg in data set [1] (setting [2]) worked out at 70%.

`Cl.Cl.N[C@H](C(=O)N1CC[C@@H](O)C1)[C@H](O)c1ccncc1` [Compound 247, (2S,3R)- & (2R,3S)-2-Amino-1-((R)-3-hydroxypyrrolidin-1-yl)-3-hydroxy-3-(pyridin-4-yl)propan-1-one dihydrochlorides]: the “Peak % Pain reversal: time post dose” value in data set [1] (300 μg/kg IP) amounted to 42% 60 min.

A word on the melting point: it is the temperature of the solid-liquid transition.
